{"source": "BindingDB's records for patent US12565497", "about": "(Hoffmann-La Roche, 2026)", "note": "pIC50: −log10 of the molar value."}
{"target": "S-adenosylmethionine synthase isoform type-2 (Homo sapiens, UniProt P31153)", "sequence (P31153 whole entry, canonical isoform)": "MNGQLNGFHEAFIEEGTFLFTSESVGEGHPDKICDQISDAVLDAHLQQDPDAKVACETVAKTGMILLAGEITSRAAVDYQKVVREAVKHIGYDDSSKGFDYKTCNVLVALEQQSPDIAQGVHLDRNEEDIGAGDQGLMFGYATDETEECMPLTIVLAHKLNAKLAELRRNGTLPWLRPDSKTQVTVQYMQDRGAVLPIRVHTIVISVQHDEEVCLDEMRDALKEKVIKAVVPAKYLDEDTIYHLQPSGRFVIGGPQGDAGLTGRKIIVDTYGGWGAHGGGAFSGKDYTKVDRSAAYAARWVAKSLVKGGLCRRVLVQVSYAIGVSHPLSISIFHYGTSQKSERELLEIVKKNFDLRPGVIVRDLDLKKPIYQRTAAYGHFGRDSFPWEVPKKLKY", "experiment": "Determination of Mat2A Activity", "description": "Measurement of Mat2A inhibition is performed in 384 well format absorbance-based assay. Recombinant human Mat2a (12.5 nM) and serial diluted compounds in DMSO (range of concentrations from 10 μM to 508 pM) or controls (DMSO) are incubated for 15 minutes at room temperature (RT) in assay buffer containing 50 mM HEPES pH 7.5, 50 mM KCl, 50 mM MgCl2, 0.01%Tween 20 and 10 mM DTT. The reaction is initiated by the addition of the combined substrates ATP and Methionine, each at a final concentration of 100 μM. Final assay condition are 12.5 nM Mat2A, 100 μM ATP and Methionine Substrates and 2% DMSO. After 120 minutes of incubation at RT, the reaction is stopped by the addition of Biomol Green. The absorbance signal is measured at λ=635 nm with a multiplate reader (BMG Pherastar reader or equivalent) after 30 min of equilibration at RT."}
{"smiles": "CCS(=O)(=O)c1ccc(-c2nccc3[nH]nc(C4CC4)c23)cc1C", "note": "[US12565497, Example 20]", "pIC50": 7.82}
{"smiles": "Cc1cc(-c2c(S(C)(=O)=O)ccc3[nH]nc(OC(F)F)c23)ccc1S(C)(=O)=O", "note": "[US12565497, Example 49]", "pIC50": "> 7.89"}
{"smiles": "Cc1cc(-c2c(C(=O)NC3COC3)ncc3[nH]nc(C4CC4)c23)ccc1S(C)(=O)=O", "note": "[US12565497, Example 84]", "pIC50": "> 7.89"}
{"smiles": "Cc1cc(-c2c(C(=O)NC3CC3)ncc3[nH]nc(C4CC4)c23)ccc1S(C)(=O)=O", "note": "[US12565497, Example 86]", "pIC50": "> 7.89"}
{"smiles": "COCCNC(=O)c1ncc2[nH]nc(OC(F)F)c2c1-c1ccc(S(=O)(=O)C(F)F)c(C)c1", "note": "[US12565497, Example 109]", "pIC50": "> 7.89"}
{"smiles": "Cc1cc(-c2c(S(C)(=N)=O)ccc3[nH]nc(C4CC4)c23)ccc1S(C)(=O)=O", "note": "(configuration not stated) [US12565497, Example 112]", "pIC50": 7.05}
{"smiles": "Cc1cc(-c2c(S(C)(=O)=O)ccc3[nH]nc(OC(F)F)c23)ccc1S(=O)(=O)C(F)F", "note": "[US12565497, Example 117]", "pIC50": "> 7.89"}
